From patent US12215123B2, “Cordycepin-based derivatized compound with anti-tumor effect” (NANJING TECH UNIVERSITY, priority 2022, dated 2025) come the findings set out here.

The subject of experiment [1] is Hep-1-6 liver cancer cells. Briefly: Mouse transplanted liver cancer model. Type of experiment: in vivo, C57BL/6j nude mice. To be noted: Hep-1-6 transplanted mice, intragastric 500 ug/time/animal every other day, 14 days; blank 900 mm^3. On the procedure:
(§1) The feeding of the mouse model in the drug evaluation follows that: mice are fed and treated in a laminar flow cabinet, with 5 nude mice in each cage, drinking water and feedstuffs are added once every 3 days, and paddings are replaced once a week; a number of mice kept in each cage is no more than 5, the mice in separate cages are kept in groups as far as possible, and the mice should not be kept in a single cage; the animal management must conform to the relevant national standards on animal feeding management, and the behavioral needs of animals should be concerned at the same time to avoid unnecessary stress; the normal physiological and behavioral needs of animals, such as defecation, urination, constant body temperature maintenance, normal activities, posture adjustment and reproduction are met; good ventilation and dry animals are kept; the animals can access to drinking water and food at will, and supplementation, replacement and cleaning operations are easily carried out; a solid and safe environment is provided to avoid accidents of animals, such as escaping or limb trapping in a gap; the animals are avoided from being damaged by sharp edges or protrusions; and the animals are not disturbed during observation.
A mouse transplanted liver cancer model was established and a drug was evaluated. […]

The subject of experiment [2] is IDB ovarian cancer cells. The experiment in a line: Mouse transplanted ovarian cancer model. Type of experiment: in vivo, C57BL/6j nude mice. The following applies: ovarian cancer transplanted mice, 15 days, 500 ug/time/animal intragastric. The protocol: as §1
A mouse transplanted ovarian cancer model was established and a drug was evaluated. […]

Molecules are shown by their SMILES. Where only a bound is given, the exact number is not on record here.

As for `CC(C)OC(=O)C(C)NP(=O)(COC[C@@H]1CC(O)[C@H](n2cnc3c(NC(=O)c4ccncc4)ncnc32)O1)Oc1ccccc1` (some centres unmarked) [Compound 24, isopropyl((((4-hydroxy-5-(6-(isonicotinamide)-9H-purin-9-yl)tetrahydrofuran-2-yl)methoxy)methyl)(phenoxy)phosphoryl)alanine ester], in experiment [1], the tumor volume is < 100 mm^3. Also, in experiment [2], the “tumor size reduced by (times) versus control” value is given as “about 2 times”.
